Here are results for 26 compounds from article PMC8162404, “Proteomimetic surface fragments distinguish targets by function” (Chemical Science, 2020).

The target in one assay is T1, Gal-1 (Homo sapiens, UniProt P09382).
T1 construct: made in house; host or cells: E. coli BL21(DE3)
As to the kind of experiment: Pull-down assay with immobilized protein and LSM libraries. It is filed as binding. As to conditions: H12 library; 1:1 binding assumed; read-out: Surface mapping KD (apparent). The gist of the method:
(§1)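 Buffers were HEPES pH 7.4 with 150 mM NaCl, plus 1 mM TCEP and 1 mM CaCl2 (50 mM HEPES) for S100A4 and S100B, 1 mM TCEP for Gal-1, and no additive for RecQ-WH. Immobilized protein at 64 µM was equilibrated 30 min with the LSM sublibrary, and unbound probes were measured by LC-MS.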

A further assay has as its target T2, S100B (Homo sapiens, UniProt P04271).
T2 construct: made in house; host or cells: Escherichia coli BL21(DE3)
T2 sequence (P04271 1-92): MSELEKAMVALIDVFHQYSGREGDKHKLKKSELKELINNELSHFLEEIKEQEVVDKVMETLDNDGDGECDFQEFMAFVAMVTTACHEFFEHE
The description is as above. It is filed as binding. As to conditions: H12 library; 1:1 binding assumed; read-out: Surface mapping KD (apparent). In a few lines: as §1

T1 sequence (P09382 whole entry): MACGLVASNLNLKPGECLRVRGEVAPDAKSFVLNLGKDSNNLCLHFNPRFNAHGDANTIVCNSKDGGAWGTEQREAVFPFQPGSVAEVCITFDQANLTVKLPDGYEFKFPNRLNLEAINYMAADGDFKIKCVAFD

`CC(C)[C@@H](CC(=O)N[C@H]1CCC[C@@H]1C(=O)N[C@H]1CCC[C@@H]1C(=O)N[C@@H](CCCCN)CC(=O)N[C@H]1CCC[C@@H]1C(=O)N[C@H]1CCC[C@@H]1C(N)=O)NC(=O)[C@H]1CCC[C@@H]1NC(=O)[C@H]1CCC[C@@H]1N` [H12 VK]: the Kd at Gal-1 was found to be 430 µM; on S100B, 185 µM.

For the compound `N=C(N)NCCC[C@@H](CC(=O)N[C@H]1CCC[C@@H]1C(=O)N[C@H]1CCC[C@@H]1C(N)=O)NC(=O)[C@H]1CCC[C@@H]1NC(=O)[C@H]1CCC[C@@H]1NC(=O)C[C@H](CO)NC(=O)[C@H]1CCC[C@@H]1NC(=O)[C@H]1CCC[C@@H]1N` [H12 SR], the Kd stood at 402 µM on Gal-1 and 123 µM at S100B.

As to `CSCC[C@@H](CC(=O)N[C@H]1CCC[C@@H]1C(=O)N[C@H]1CCC[C@@H]1C(=O)N[C@@H](C)CC(=O)N[C@H]1CCC[C@@H]1C(=O)N[C@H]1CCC[C@@H]1C(N)=O)NC(=O)[C@H]1CCC[C@@H]1NC(=O)[C@H]1CCC[C@@H]1N` [H12 MA], the values for the Kd on Gal-1 and at S100B were 194 µM and 224 µM, respectively.

As for `CSCC[C@@H](CC(=O)N[C@H]1CCC[C@@H]1C(=O)N[C@H]1CCC[C@@H]1C(=O)N[C@@H](CCCCN)CC(=O)N[C@H]1CCC[C@@H]1C(=O)N[C@H]1CCC[C@@H]1C(N)=O)NC(=O)[C@H]1CCC[C@@H]1NC(=O)[C@H]1CCC[C@@H]1N` [H12 MK], the Kd is 172 µM on Gal-1 and 78 µM on S100B.

`NCCCC[C@@H](CC(=O)N[C@H]1CCC[C@@H]1C(=O)N[C@H]1CCC[C@@H]1C(=O)N[C@H](CC(=O)N[C@H]1CCC[C@@H]1C(=O)N[C@H]1CCC[C@@H]1C(N)=O)Cc1ccc(O)cc1)NC(=O)[C@H]1CCC[C@@H]1NC(=O)[C@H]1CCC[C@@H]1N` [H12 KY]: the Kd on Gal-1 is 227 µM; at S100B, 138 µM.

`C[C@@H](O)[C@@H](CC(=O)N[C@H]1CCC[C@@H]1C(=O)N[C@H]1CCC[C@@H]1C(N)=O)NC(=O)[C@H]1CCC[C@@H]1NC(=O)[C@H]1CCC[C@@H]1NC(=O)C[C@H](Cc1ccc(O)cc1)NC(=O)[C@H]1CCC[C@@H]1NC(=O)[C@H]1CCC[C@@H]1N` [H12 YT]: the Kd turned out to be 300 µM at Gal-1 and 251 µM on S100B.

Consider `NC(=O)C[C@@H](CC(=O)N[C@H]1CCC[C@@H]1C(=O)N[C@H]1CCC[C@@H]1C(N)=O)NC(=O)[C@H]1CCC[C@@H]1NC(=O)[C@H]1CCC[C@@H]1NC(=O)C[C@H](Cc1ccccc1)NC(=O)[C@H]1CCC[C@@H]1NC(=O)[C@H]1CCC[C@@H]1N` [H12 FN], for which the Kd on Gal-1 is 226 µM; on S100B it was 109 µM.

In the case of `NC(=O)CC[C@@H](CC(=O)N[C@H]1CCC[C@@H]1C(=O)N[C@H]1CCC[C@@H]1C(N)=O)NC(=O)[C@H]1CCC[C@@H]1NC(=O)[C@H]1CCC[C@@H]1NC(=O)C[C@H](Cc1ccccc1)NC(=O)[C@H]1CCC[C@@H]1NC(=O)[C@H]1CCC[C@@H]1N` [H12 FQ], the Kd worked out at 208 µM on Gal-1 and 104 µM at S100B.

`CSCC[C@@H](CC(=O)N[C@H]1CCC[C@@H]1C(=O)N[C@H]1CCC[C@@H]1C(N)=O)NC(=O)[C@H]1CCC[C@@H]1NC(=O)[C@H]1CCC[C@@H]1NC(=O)C[C@H](CCCCN)NC(=O)[C@H]1CCC[C@@H]1NC(=O)[C@H]1CCC[C@@H]1N` [H12 KM]: the Kd on Gal-1 turned out to be 282 µM; on S100B, 153 µM.

Take `CSCC[C@@H](CC(=O)N[C@H]1CCC[C@@H]1C(=O)N[C@H]1CCC[C@@H]1C(N)=O)NC(=O)[C@H]1CCC[C@@H]1NC(=O)[C@H]1CCC[C@@H]1NC(=O)C[C@H](CCSC)NC(=O)[C@H]1CCC[C@@H]1NC(=O)[C@H]1CCC[C@@H]1N` [H12 MM]: the Kd was found to be 364 µM on Gal-1 and 166 µM on S100B.

Regarding `CSCC[C@@H](CC(=O)N[C@H]1CCC[C@@H]1C(=O)N[C@H]1CCC[C@@H]1C(=O)N[C@@H](CC(N)=O)CC(=O)N[C@H]1CCC[C@@H]1C(=O)N[C@H]1CCC[C@@H]1C(N)=O)NC(=O)[C@H]1CCC[C@@H]1NC(=O)[C@H]1CCC[C@@H]1N` [H12 MN], the Kd on Gal-1 amounted to 195 µM; on S100B it was 177 µM.

On to `CSCC[C@@H](CC(=O)N[C@H]1CCC[C@@H]1C(=O)N[C@H]1CCC[C@@H]1C(=O)N[C@@H](CO)CC(=O)N[C@H]1CCC[C@@H]1C(=O)N[C@H]1CCC[C@@H]1C(N)=O)NC(=O)[C@H]1CCC[C@@H]1NC(=O)[C@H]1CCC[C@@H]1N` [H12 MS], for which the Kd at Gal-1 was determined as 224 µM; on S100B it was 215 µM.

Consider `NC(=O)[C@H]1CCC[C@@H]1NC(=O)[C@H]1CCC[C@@H]1NC(=O)C[C@H](CC(=O)O)NC(=O)[C@H]1CCC[C@@H]1NC(=O)[C@H]1CCC[C@@H]1NC(=O)C[C@H](Cc1ccccc1)NC(=O)[C@H]1CCC[C@@H]1NC(=O)[C@H]1CCC[C@@H]1N` [H12 FD], for which the Kd at Gal-1 was found to be 251 µM; at S100B, 371 µM.

`C[C@@H](O)[C@@H](CC(=O)N[C@H]1CCC[C@@H]1C(=O)N[C@H]1CCC[C@@H]1C(N)=O)NC(=O)[C@H]1CCC[C@@H]1NC(=O)[C@H]1CCC[C@@H]1NC(=O)C[C@H](Cc1ccccc1)NC(=O)[C@H]1CCC[C@@H]1NC(=O)[C@H]1CCC[C@@H]1N` [H12 FT]: the Kd on Gal-1 came out at 254 µM; at S100B it was 86 µM.

Turning to `NC(=O)C[C@@H](CC(=O)N[C@H]1CCC[C@@H]1C(=O)N[C@H]1CCC[C@@H]1C(N)=O)NC(=O)[C@H]1CCC[C@@H]1NC(=O)[C@H]1CCC[C@@H]1NC(=O)C[C@H](Cc1ccc(O)cc1)NC(=O)[C@H]1CCC[C@@H]1NC(=O)[C@H]1CCC[C@@H]1N` [H12 YN], the Kd turned out to be 181 µM at Gal-1 and 237 µM on S100B.

For the compound `CSCC[C@@H](CC(=O)N[C@H]1CCC[C@@H]1C(=O)N[C@H]1CCC[C@@H]1C(N)=O)NC(=O)[C@H]1CCC[C@@H]1NC(=O)[C@H]1CCC[C@@H]1NC(=O)C[C@@H](NC(=O)[C@H]1CCC[C@@H]1NC(=O)[C@H]1CCC[C@@H]1N)C(C)C` [H12 VM], the Kd at Gal-1 worked out at 459 µM; on S100B it was 303 µM.

In the case of `NCCCC[C@@H](CC(=O)N[C@H]1CCC[C@@H]1C(=O)N[C@H]1CCC[C@@H]1C(=O)N[C@@H](CCC(N)=O)CC(=O)N[C@H]1CCC[C@@H]1C(=O)N[C@H]1CCC[C@@H]1C(N)=O)NC(=O)[C@H]1CCC[C@@H]1NC(=O)[C@H]1CCC[C@@H]1N` [H12 KQ], the Kd on Gal-1 came to 293 µM; on S100B, 300 µM.

For the compound `CC(C)C[C@@H](CC(=O)N[C@H]1CCC[C@@H]1C(=O)N[C@H]1CCC[C@@H]1C(=O)N[C@@H](C)CC(=O)N[C@H]1CCC[C@@H]1C(=O)N[C@H]1CCC[C@@H]1C(N)=O)NC(=O)[C@H]1CCC[C@@H]1NC(=O)[C@H]1CCC[C@@H]1N` [H12 LA], the Kd stood at 438 µM on Gal-1 and 293 µM at S100B.

In the case of `NC(=O)[C@H]1CCC[C@@H]1NC(=O)[C@H]1CCC[C@@H]1NC(=O)C[C@H](CCC(=O)O)NC(=O)[C@H]1CCC[C@@H]1NC(=O)[C@H]1CCC[C@@H]1NC(=O)C[C@H](Cc1c[nH]c2ccccc12)NC(=O)[C@H]1CCC[C@@H]1NC(=O)[C@H]1CCC[C@@H]1N` [H12 WE], the Kd on Gal-1 worked out at 256 µM; at S100B, 229 µM.

With `NC(=O)CC[C@@H](CC(=O)N[C@H]1CCC[C@@H]1C(=O)N[C@H]1CCC[C@@H]1C(N)=O)NC(=O)[C@H]1CCC[C@@H]1NC(=O)[C@H]1CCC[C@@H]1NC(=O)C[C@H](Cc1ccc(O)cc1)NC(=O)[C@H]1CCC[C@@H]1NC(=O)[C@H]1CCC[C@@H]1N` [H12 YQ], the Kd worked out at 176 µM on Gal-1 and 222 µM at S100B.

As for `NC(=O)[C@H]1CCC[C@@H]1NC(=O)[C@H]1CCC[C@@H]1NC(=O)C[C@H](CO)NC(=O)[C@H]1CCC[C@@H]1NC(=O)[C@H]1CCC[C@@H]1NC(=O)C[C@H](Cc1ccccc1)NC(=O)[C@H]1CCC[C@@H]1NC(=O)[C@H]1CCC[C@@H]1N` [H12 FS], the Kd at Gal-1 amounted to 268 µM; on S100B, 310 µM.

As for `CSCC[C@@H](CC(=O)N[C@H]1CCC[C@@H]1C(=O)N[C@H]1CCC[C@@H]1C(=O)N[C@H](CC(=O)N[C@H]1CCC[C@@H]1C(=O)N[C@H]1CCC[C@@H]1C(N)=O)[C@@H](C)O)NC(=O)[C@H]1CCC[C@@H]1NC(=O)[C@H]1CCC[C@@H]1N` [H12 MT], the Kd on Gal-1 was 169 µM; at S100B, 162 µM.

`CC[C@H](C)[C@@H](CC(=O)N[C@H]1CCC[C@@H]1C(=O)N[C@H]1CCC[C@@H]1C(=O)N[C@@H](C)CC(=O)N[C@H]1CCC[C@@H]1C(=O)N[C@H]1CCC[C@@H]1C(N)=O)NC(=O)[C@H]1CCC[C@@H]1NC(=O)[C@H]1CCC[C@@H]1N` [H12 IA]: the Kd on Gal-1 is 469 µM; on S100B it was 254 µM.

For the compound `CC[C@H](C)[C@@H](CC(=O)N[C@H]1CCC[C@@H]1C(=O)N[C@H]1CCC[C@@H]1C(=O)N[C@@H](CO)CC(=O)N[C@H]1CCC[C@@H]1C(=O)N[C@H]1CCC[C@@H]1C(N)=O)NC(=O)[C@H]1CCC[C@@H]1NC(=O)[C@H]1CCC[C@@H]1N` [H12 IS], the values for the Kd on Gal-1 and at S100B were 485 µM and 360 µM, respectively.

`N=C(N)NCCC[C@@H](CC(=O)N[C@H]1CCC[C@@H]1C(=O)N[C@H]1CCC[C@@H]1C(N)=O)NC(=O)[C@H]1CCC[C@@H]1NC(=O)[C@H]1CCC[C@@H]1NC(=O)C[C@H](Cc1ccc(O)cc1)NC(=O)[C@H]1CCC[C@@H]1NC(=O)[C@H]1CCC[C@@H]1N` [H12 YR]: the results for the Kd on Gal-1 and at S100B were 61 µM and 65 µM, respectively.

As to `CC(C)[C@@H](CC(=O)N[C@H]1CCC[C@@H]1C(=O)N[C@H]1CCC[C@@H]1C(N)=O)NC(=O)[C@H]1CCC[C@@H]1NC(=O)[C@H]1CCC[C@@H]1NC(=O)C[C@H](CCCCN)NC(=O)[C@H]1CCC[C@@H]1NC(=O)[C@H]1CCC[C@@H]1N` [H12 KV], the Kd on Gal-1 worked out at 221 µM; at S100B, 193 µM.
